# Test results taken from a melting point compilation (Tetko et al.; mined from patent text by program, amines drawn as free bases though some values may be those of a salt).
row,Compound,melting point
1,CC(=O)Cc1ccccc1Br,60 to 65 °C
2,C(#Cc1ccncc1)c1ccccc1,51 to 53 °C
3,O=C(O)c1cn(-c2ccc(F)cc2)c(-c2ccc(O)cc2)cc1=O,185 to 193 °C
4,CC(C)c1[nH]n(-c2c(Cl)cc(Cl)cc2Cl)c2nc(Cc3ccc(NC(=O)OCCCN(C)C)cc3)nc(=O)c1-2,200 to 202 °C
5,CCOC(=O)c1cc(C(=O)NC)nc(C(=O)NC)c1N,185 to 186 °C
6,CCOC(=O)c1cnn(-c2ccc(Cl)cc2C(F)(F)F)c1N,114 to 116 °C
7,Cc1noc(-c2cc3c4ccccc4n(CCCCl)c3cn2)n1,180 to 185 °C
8,CC(=O)N1CCN(C(C)c2ccc(-c3ccc(Cl)cc3)cc2)CC1 (stereo unspecified),120 to 121 °C
9,NC(=O)C1C(CSSCC2C(C(N)=O)N(Cc3ccccc3)C(=O)N2Cc2ccccc2)N(Cc2ccccc2)C(=O)N1Cc1ccccc1 (stereo unspecified),208 to 211 °C
10,C=CC(C)(C)C(O)(COc1ccc(-c2ccccc2)cc1)Cn1cncn1 (stereo unspecified),85 to 87 °C
11,O=C(CCCOCCc1ccc2ccccc2c1)c1ccc(F)cc1,68 to 70 °C
12,Nc1nc2c(ncn2OCCCCP(=O)(O)O)c(=O)[nH]1,208 °C
13,O=Cc1c(Br)ccc2cc3c(cc12)OCO3,165 to 166 °C
14,N=c1ccccn1CC(O)COc1cccc2ccccc12 (stereo unspecified),138 to 141 °C
15,CCc1cccc(C)c1CNc1cc(C(=O)OC)cn2nc(C)nc12,140 °C
16,N#Cc1c[nH]c(-c2ccc(F)cc2)c1,158 to 159 °C
17,COCCNc1cncc(C(N)=O)c1,79 to 80 °C
18,O=C(CCS)N[C@@H](Cc1ccc(O)c(O)c1)C(=O)O,89 to 91 °C
19,Clc1ccc2c(c1)N(C1CN3CCC1CC3)c1ccccc1S2 (stereo unspecified),165 °C
20,Cc1ccc2c(NCc3ccc(NC(=O)c4ccc(Cl)cc4)cc3)nc(N3CCCCCC3)nc2c1,192 to 194 °C

row,Compound,melting point
1,COc1ccc(CNc2nc(Cl)ncc2C(=O)c2cc(OC)c(OC)c(OC)c2)cc1Cl,165 °C
2,C=CC1CC2=CC(=O)CCC2C2CCC3(C)C(OC(C)=O)CCC3C12 (stereo unspecified),130 to 134 °C
3,O=C(NCc1c[nH]c(=S)n1[C@H]1CCc2c(F)cc(F)cc2C1)c1ccccc1,260 to 261 °C
4,CCOC(=O)N1CC(C)(C)CSC1=Nc1ccccc1C(C)C,84 to 86 °C
5,CCC(=O)N1N=C(c2ccc(N)cc2)c2cc(Cl)ccc2CC1C (stereo unspecified),118 to 120 °C
6,O=C1Nc2ccccc2CN(c2ccccc2)N1,283 to 286 °C
7,COc1cc2c(Nc3ccc(C)c(OC(C)=O)c3)ncnc2cc1OCc1cccnc1,113 to 115 °C
8,CCCNC(=O)c1cnc2c(c1O)CN(C(=O)OCC)CC2,199 to 201 °C
9,CC(C)(C)OC(=O)N1CCC2(C=Cc3ccccc32)CC1,128 °C
10,CC(C)(C)OC(=O)Nc1ccccc1NC(=O)c1ccc(C(=O)O)cc1,190 to 192 °C
11,CCOC(=O)c1cc2c3n(ccc-2n1)C(Br)C(C)=N3 (stereo unspecified),224 to 226 °C
12,Cc1c(CC(=O)O)c2cc(O)ccc2n1C(=O)c1ccccc1,186 to 188 °C
13,CC(C)(C)OC(=O)N1CCC(Oc2ccc(C3=NNC(=O)CC3c3ccccn3)cc2)CC1 (stereo unspecified),213 to 214 °C
14,CC(=O)Oc1cc([N+](=O)[O-])cc2c1OC(C)(C)C2,142 to 143 °C
15,CN(C(N)=O)C1CCCc2sccc21 (stereo unspecified),152 to 154 °C
16,COc1nsc(N2CCN(c3ccccn3)CC2)n1,144 to 145 °C
17,COc1ccc(-n2nc(C(F)F)cc2-c2ccc(S(C)(=O)=O)cc2)cc1F,185 to 186 °C
18,Cc1cccc(C)c1Oc1cc2c(cc1Cl)C=C(C(=O)O)C(C(F)(F)F)O2 (stereo unspecified),253 to 259 °C
19,O[C@@H]1c2ccccc2CC[C@H]1NCc1ccccc1 (relative stereo),110 to 114 °C
20,OCCc1cc(C(O)CNCCCCCOCCCCc2ccccc2)ccc1O (stereo unspecified),65 to 67 °C

# The next lines start with the values.
row,melting point,Compound
1,99 to 105 °C,CNC(=O)c1cccc(F)c1Nc1nc(Nc2ccc3c(c2)CCN(CCOC)CC3)ncc1Br
2,50 to 53 °C,C=CCCCCCCOc1ccc(C(CC(C(=O)OCC)C(=O)OCC)NC(C)=O)cc1 (stereo unspecified)
3,174 to 178 °C,CSC1C(=O)Nc2ccc(Oc3ccc(C(F)(F)F)c(Cl)c3)cc21 (stereo unspecified)
4,109 to 123 °C,O=C(O)c1ccccc1Oc1ccccc1C1CCCCC1
5,108 to 109 °C,CCCCCCCCCCS(=O)(=O)c1ccc(O)c(C(=O)Nc2cccc(C(F)(F)F)c2)c1
6,114 °C,CC(=Cc1ccccc1)c1cc2c(cc1Cl)C(C)(C)CCC2(C)C
7,184 to 187 °C,Cc1nc2c(N)nc3ccccc3c2n1CCCCS(C)=O (stereo unspecified)
8,106 to 108 °C,C#CCCCCCCCCCCOc1cccc(C(N)=O)c1
9,192 to 194 °C,Cc1oc(-c2ccccc2)nc1CCOc1ccc(C(=O)O)c(O)c1
10,98 to 110 °C,CC12CCC(=O)C=C1CCC1C2C(O)CC2(C)C1CCC2(O)C(=O)COC(=O)CC(CC(=O)O)c1ccc(O)cc1 (stereo unspecified)
11,154 to 155 °C,COCOc1ccccc1-c1nc(N)c(C#N)c(-c2cccc([N+](=O)[O-])c2)c1C
12,191 to 192 °C,Cc1cccc(-c2nc3ccc(N(C)C)nn3c2-c2ccnc(NC3CCCCC3)c2)c1
13,117 °C,COc1c(C)cc2c(c1C)C[C@@H]1c3ccccc3N[C@H]21 (relative stereo)
14,80 to 82 °C,Cc1ccc(S(=O)(=O)OCC2Cc3cc(Cl)cc(-c4cccc(Cl)c4)c3O2)cc1 (stereo unspecified)
15,222 to 225 °C,CCCC(=O)c1c[nH]c2c(OC)csc2c1=O
16,84 to 88 °C,COc1ncnc(-c2cc([N+](=O)[O-])c(F)cc2F)c1Cl

row,melting point,Compound
1,141 °C,Cc1nc(Br)c(C=O)n1Cc1cc2c(cc1Cl)OCO2
2,206 to 208 °C,N#Cc1c2c(c3c(c1N1CCCC1)Cc1ccccc1-3)-c1ccccc1C2
3,207 to 209 °C,Cc1nc2c(OCc3c(Cl)ccc(N(C)C=O)c3Cl)cccn2c1Br
4,177 to 179 °C,O=C(O)c1cccc(CN2CCC(c3cn(Cc4ccoc4)c4ncccc34)CC2)c1
5,111 to 112 °C,C=CCCCCC1CCC(CC)(CC(=O)O)c2[nH]c3c(C)cccc3c21 (stereo unspecified)
6,160 to 168 °C,OC(CCC(c1ccccc1)c1ccccc1)c1cncn1Cc1ccccc1 (stereo unspecified)
7,186 to 189 °C,O=S1(=O)NC(c2ccccc2)Nc2c(Br)cc(Br)cc21 (stereo unspecified)
8,140 °C,CC(C)S(=O)(=O)c1ccc(Oc2ccc([N+](=O)[O-])c(NCCC#N)c2)c(Cl)c1
9,135 to 136 °C,COc1ccc(CN2C(=O)C(NC(=O)OCc3ccccc3)C2C2COC(=O)O2)cc1OC (stereo unspecified)
10,146 to 149 °C,COCCc1nc2c(N)nc3ccccc3c2n1CCCCCCCCNS(=O)(=O)c1ccccc1
11,124 to 125 °C,Cc1nc(C(F)(F)F)ccc1C(=O)C1=C(Sc2ccccc2)CCCC1=O
12,198 to 200 °C,O=c1cc(-c2ccccc2)cc2n1CCN2
13,61 to 62 °C,CCOC(=O)c1cnc2ccc(C3CCCCCC3)cc2c1Cl
14,215 to 216 °C,O=C(N[C@@H](Cc1ccccc1)[C@@H](O)[C@H](O)[C@H](Cc1ccccc1)NC(=O)OCc1ccccc1)OCc1ccccc1
15,155 to 158 °C,CC(C(=O)n1c(=O)oc2ccccc21)C(O)c1ccccc1 (stereo unspecified)
